Measurements as given in patent publication US9938299B2, “Glycosidase inhibitors and uses thereof” (MERCK SHARP & DOHME CORP., priority 2012, dated 2018).

Biological target: T1, human O-GlcNAcase (Homo sapiens, UniProt O60502)
T1 sequence (O60502 1-916): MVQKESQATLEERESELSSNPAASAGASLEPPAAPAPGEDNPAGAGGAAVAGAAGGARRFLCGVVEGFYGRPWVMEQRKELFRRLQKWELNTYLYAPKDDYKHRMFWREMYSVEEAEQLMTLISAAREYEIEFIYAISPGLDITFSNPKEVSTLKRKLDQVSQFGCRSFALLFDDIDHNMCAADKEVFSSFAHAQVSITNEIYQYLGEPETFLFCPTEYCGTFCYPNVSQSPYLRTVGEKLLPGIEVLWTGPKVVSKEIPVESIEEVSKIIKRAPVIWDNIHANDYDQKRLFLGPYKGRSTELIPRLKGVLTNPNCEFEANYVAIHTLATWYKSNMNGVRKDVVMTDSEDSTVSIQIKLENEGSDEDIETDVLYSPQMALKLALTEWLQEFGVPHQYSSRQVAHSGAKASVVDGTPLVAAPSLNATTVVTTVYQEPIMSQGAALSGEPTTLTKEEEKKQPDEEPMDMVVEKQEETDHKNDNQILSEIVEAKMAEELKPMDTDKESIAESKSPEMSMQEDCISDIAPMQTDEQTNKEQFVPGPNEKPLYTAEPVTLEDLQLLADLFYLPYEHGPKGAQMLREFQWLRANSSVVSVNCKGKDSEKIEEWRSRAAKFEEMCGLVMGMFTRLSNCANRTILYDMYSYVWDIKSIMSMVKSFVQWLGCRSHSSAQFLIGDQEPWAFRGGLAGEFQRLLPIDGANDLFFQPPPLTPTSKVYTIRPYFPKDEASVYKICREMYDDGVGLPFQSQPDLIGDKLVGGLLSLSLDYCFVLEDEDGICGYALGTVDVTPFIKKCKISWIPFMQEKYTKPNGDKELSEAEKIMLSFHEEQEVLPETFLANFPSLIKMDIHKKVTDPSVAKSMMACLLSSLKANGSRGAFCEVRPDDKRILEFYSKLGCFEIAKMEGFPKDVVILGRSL
Experiment: Determination of KI values for inhibition of O-GlcNAcase activity (fluorogenic 4-methylumbelliferyl GlcNAc substrate)
Assay type: biochemical
Details: purified human O-GlcNAcase 0.7 nM, 2 mM substrate, pH 7.0, room temperature; Cheng-Prusoff; read-out: Ki
Description: Assay for Determination of […] for Inhibition of O-GlcNAcase Activity
Experimental procedure for kinetic analyses: Enzymatic reactions were carried out in a reaction containing 50 mM NaH2PO4, 100 mM NaCl and 0.1% BSA (pH 7.0) using 2 mM 4-Methylumbelliferyl N-acetyl-β-D-glucosaminide dihydrate (Sigma M2133) dissolved in ddH2O, as a substrate. The amount of purified human O-GlcNAcase enzyme used in the reaction was 0.7 nM. Test compound of varying concentrations was added to the enzyme prior to initiation of the reaction. The reaction was performed at room temperature in a 96-well plate and was initiated with the addition of substrate. […] The slope of product production was determined for each concentration of compound tested and plotted, using standard curve fitting algorithms for sigmoidal dose response curves. The values for a four parameter logistic curve fit of the data were determined.

Row | Ki | Compound
1 | 1.6 nM | COc1ccc(CC[C@@H]([C@H]2O[C@@H]3SC(N(C)C)=N[C@@H]3[C@@H](O)[C@@H]2O)C(F)(F)F)cc1 (single isomer, unassigned) [Example 2]
2 | 9.5 nM | COc1ccc(C/C=C(\[C@H]2O[C@@H]3SC(N(C)C)=N[C@@H]3[C@@H](O)[C@@H]2O)C(F)(F)F)cc1 (single isomer, unassigned) [Example 3]
3 | 16.2 nM | COc1ccc(C/C=C(/[C@H]2O[C@@H]3SC(N(C)C)=N[C@@H]3[C@@H](O)[C@@H]2O)C(F)(F)F)cc1 (single isomer, unassigned) [Example 4]
4 | 139 nM | CNC1=N[C@@H]2[C@@H](O)[C@H](O)[C@@H]([C@H](O)CCc3ccc(OC)cc3)O[C@@H]2S1 (single isomer, unassigned) [Example 6]
5 | 1.2 nM | CNC1=N[C@@H]2[C@@H](O)[C@H](O)[C@@H]([C@@H](O)CCc3ccc(OC)cc3)O[C@@H]2S1 (single isomer, unassigned) [Example 7]
6 | 0.95 nM | CNC1=N[C@@H]2[C@@H](O)[C@H](O)[C@@H]([C@](O)(CCc3ccc(OC)cc3)C(F)(F)F)O[C@@H]2S1 (single isomer, unassigned) [Example 8]
7 | 24 nM | CNC1=N[C@@H]2[C@@H](O)[C@H](O)[C@@H]([C@@](O)(CCc3ccc(OC)cc3)C(F)(F)F)O[C@@H]2S1 (single isomer, unassigned) [Example 9]
8 | 0.92 nM | CN(C)C1=N[C@@H]2[C@@H](O)[C@H](O)[C@@H](C(O)(CCc3ccccc3)C(F)(F)F)O[C@@H]2S1 (stereo in doubt) [Example 27, (3aR,5S,6S,7R,7aR)-2-(dimethylamino)-5-((S)-1,1,1-trifluoro-2-hydroxy-4-phenylbutan-2-yl)-5,6,7,7a-tetrahydro-3aH-pyrano[3,2-d]thiazole-6,7-diol]
9 | 316 nM | CN(C)C1=N[C@@H]2[C@@H](O)[C@H](O)[C@@H]([C@@](O)(CCc3ccccc3)C(F)(F)F)O[C@@H]2S1 (stereo in doubt) [Example 28, (3aR,5S,6S,7R,7aR)-2-(dimethylamino)-5-(1,1,1-trifluoro-2-hydroxy-4-phenylbutan-2-yl)-5,6,7,7a-tetrahydro-3aH-pyrano[3,2-d]thiazole-6,7-diol]
10 | 1.1 nM | COc1ccc(CCC(O)([C@H]2O[C@@H]3SC(N(C)C)=N[C@@H]3[C@@H](O)[C@@H]2O)C(F)(F)F)cc1 (stereo in doubt) [Example 29, (3aR,5S,6S,7R,7aR)-2-(dimethylamino)-5-((S)-1,1,1-trifluoro-2-hydroxy-4-(4-methoxyphenyl)butan-2-yl)-5,6,7,7a-tetrahydro-3aH-pyrano[3,2-d]thiazole-6,7-diol]
11 | 109 nM | COc1ccc(CC[C@H]([C@H]2O[C@@H]3SC(N(C)C)=N[C@@H]3[C@@H](O)[C@@H]2O)C(F)(F)F)cc1 [Example 1, (3aR,5R,6S,7R,7aR)-2-(dimethylamino)-5-((R)-1,1,1-trifluoro-4-(4-methoxyphenyl)butan-2-yI)-5,6,7,7a-tetrahydro-3aH-pyrano[3,2-d]thiazole-6,7-diol]
12 | 72 nM | CCOC(=O)/C=C/[C@H]1O[C@@H]2SC(NC)=N[C@@H]2[C@@H](O)[C@@H]1O [Example 5, (E)-ethyl 3-((3aR,5R,6S,7R,7aR)-6,7-dihydroxy-2-(methylamino)-5,6,7,7a-tetrahydro-3aH-pyrano[3,2-d]thiazol-5-yl)acrylate]
13 | 69 nM | CNC1=N[C@@H]2[C@@H](O)[C@H](O)[C@@H](C(F)(F)CCc3ccc(OC)cc3)O[C@@H]2S1 [Example 10, (3aR,5S,6S,7R,7aR)-5-(1,1-difluoro-3-(4-methoxyphenyl)propyl)-2-(methylamino)-5,6,7,7a-tetrahydro-3aH-pyrano[3,2-d]thiazole-6,7-diol]
14 | 5.9 nM | CN(C)C1=N[C@@H]2[C@@H](O)[C@H](O)[C@@H](CC#N)O[C@@H]2S1 [Example 11, 2-((3aR,5R,6S,7R,7aR)-2-(dimethylamino)-6,7-dihydroxy-5,6,7,7a-tetrahydro-3aH-pyrano[3,2-d]thiazol-5-yl)acetonitrile]
15 | 22 nM | CNC1=N[C@@H]2[C@@H](O)[C@H](O)[C@@H](CCC(=O)OC)O[C@@H]2S1 [Example 12, methyl 3-((3aR,5R,6S,7R,7aR)-6,7-dihydroxy-2-(methylamino)-5,6,7,7a-tetrahydro-3aH-pyrano[3,2-d]thiazol-5-yl)propanoate]
16 | 100 nM | CNC(=O)CC[C@H]1O[C@@H]2SC(N(C)C)=N[C@@H]2[C@@H](O)[C@@H]1O [Example 13, 3-((3aR,5R,6S,7R,7aR)-2-(dimethylamino)-6,7-dihydroxy-5,6,7,7a-tetrahydro-3aH-pyrano[3,2-d]thiazol-5-yl)-N-methylpropanamide]
17 | 10.1 nM | C=C(C)[C@H]1O[C@@H]2SC(NC)=N[C@@H]2[C@@H](O)[C@@H]1O [Example 14, (3aR,5R,6S,7R,7aR)-2-(methylamino)-5-(prop-1-en-2-yl)-5,6,7,7a-tetrahydro-3aH-pyrano[3,2-d]thiazole-6,7-diol 2,2,2-trifluoroacetate]
18 | 63 nM | C=C([C@H]1O[C@@H]2SC(NC)=N[C@@H]2[C@@H](O)[C@@H]1O)C(F)(F)F [Example 15, (3aR,5R,6S,7R,7aR)-2-(methylamino)-5-(3,3,3-trifluoroprop-1-en-2-yl)-5,6,7,7a-tetrahydro-3aH-pyrano[3,2-d]thiazole-6,7-diol]
19 | 21 nM | C=C(C)[C@H]1O[C@@H]2SC(N(C)C)=N[C@@H]2[C@@H](O)[C@@H]1O [Example 16, (3aR,5R,6S,7R,7aR)-2-(dimethylamino)-5-(prop-1-en-2-yl)-5,6,7,7a-tetrahydro-3aH-pyrano[3,2-d]thiazole-6,7-diol]
20 | 139 nM | CNC1=N[C@@H]2[C@@H](O)[C@H](O)[C@@H]([C@@H](CCc3ccc(OC)cc3)C(F)(F)F)O[C@@H]2S1 [Example 17, (3aR,5R,65,7R,7aR)-2-(methylamino)-5-((R)-1,1,1-trifluoro-4-(4-methoxyphenyl)butan-2-yl)-5,6,7,7a-tetrahydro-3aH-pyrano[3,2-d]thiazole-6,7-diol]
21 | 1.1 nM | CNC1=N[C@@H]2[C@@H](O)[C@H](O)[C@@H]([C@H](CCc3ccc(OC)cc3)C(F)(F)F)O[C@@H]2S1 [Example 18, (3aR,5R,65,7R,7aR)-2-(methylamino)-5-(1,1,1-trifluoro-4-(4-methoxyphenyl)butan-2-yl)-5,6,7,7a-tetrahydro-3aH-pyrano[3,2-d]thiazole-6,7-diol]
22 | 20 nM | CN(C)C1=N[C@@H]2[C@@H](O)[C@H](O)[C@@H](C(=CCc3ccccc3)C(F)(F)F)O[C@@H]2S1 [Example 19, (3aR,5R,6S,7R,7aR)-2-(dimethylamino)-5-(1,1,1-trifluoro-4-phenylbut-2-en-2-yl)-5,6,7,7a-tetrahydro-3aH-pyrano[3,2-d]thiazole-6,7-diol]
23 | 736 nM | CN(C)C1=N[C@@H]2[C@@H](O)[C@H](O)[C@@H]([C@H](O)Cc3ccccc3)O[C@@H]2S1 [Example 20, (3aR,5R,6S,7R,7aR)-2-(dimethylamino)-5-((R)-1-hydroxy-2-phenylethyl)-5,6,7,7a-tetrahydro-3aH-pyrano[3,2-d]thiazole-6,7-diol]
24 | 25.6 nM | CN(C)C1=N[C@@H]2[C@@H](O)[C@H](O)[C@@H]([C@@H](O)Cc3ccccc3)O[C@@H]2S1 [Example 21, (3aR,5R,6S,7R,7aR)-2-(dimethylamino)-5-((S)-1-hydroxy-2-phenylethyl)-5,6,7,7a-tetrahydro-3aH-pyrano[3,2-d]thiazole-6,7-diol]
25 | 505 nM | COc1ccc(CC[C@@H](O)[C@H]2O[C@@H]3SC(N(C)C)=N[C@@H]3[C@@H](O)[C@@H]2O)cc1 [Example 22, (3aR,5R,6S,7R,7aR)-2-(dimethylamino)-5-((R)-1-hydroxy-3-(4-methoxyphenyl)propyl)-5,6,7,7a-tetrahydro-3aH-pyrano[3,2-d]thiazole-6,7-diol]
26 | 6.4 nM | COc1ccc(CC[C@H](O)[C@H]2O[C@@H]3SC(N(C)C)=N[C@@H]3[C@@H](O)[C@@H]2O)cc1 [Example 23, (3aR,5R,6S,7R,7aR)-2-(dimethylamino)-5-((S)-1-hydroxy-3-(4-methoxyphenyl)propyl)-5,6,7,7a-tetrahydro-3aH-pyrano[3,2-d]thiazole-6,7-diol]
